What is called IC50 is the concentration that inhibits the measured activity by half.

This series in a line: TP_TRANSPORTER: drug resistance (vincristine) in AML-2/D100 cells.
`COc1cc(-c2oc3cc(O)cc(O)c3c(=O)c2O)cc(OC)c1OC` gave a concentration for half-maximal inhibition (IC50) of 3.2 µM. As for `COc1cc(OC)c2c(=O)cc(-c3cc(OC)c(OC)c(OC)c3)oc2c1`, half-maximal inhibition (IC50) required 0.4 µM. Turning to `COc1cc(-c2cc(=O)c3c(OC)c(OC)c(OC)cc3o2)cc(OC)c1OC`, the IC50 came to 0.9 µM.

`COc1ccc(-c2cc(=O)c3ccccc3o2)cc1OC` gave an IC50 of 1.2 µM. In the case of `COc1ccc2c(=O)cc(-c3ccc(OC)c(OC)c3)oc2c1`, 1.2 µM corresponded to half-maximal inhibition (IC50). `COc1ccc2oc(-c3ccc(OC)c(OC)c3)c(OC)c(=O)c2c1` returned an IC50 of 1.9 µM. `COc1ccc(-c2oc3cc(O)ccc3c(=O)c2O)cc1OC` gave an IC50 of 6.3 µM. In the case of `O=c1cc(-c2ccc(O)c(O)c2)oc2cc(O)cc(O)c12` [2-(3,4-dihydroxyphenyl)-5,7-dihydroxy-4H-chromen-4-one], the IC50 was found to be 19.6 µM.

In turn, `COc1ccc(-c2cc(=O)c3c(OC)c(OC)c(OC)cc3o2)cc1OC` [2-(3,4-dimethoxyphenyl)-5,6,7-trimethoxy-4H-chromen-4-one] showed an IC50 of 3.2 µM. The same measure for `COc1ccc(-c2cc(=O)c3c(OC)cc(OC)cc3o2)cc1` [TRIMETHYLAPIGENIN]: 1.4 µM.
